Test results published in patent publication US5486528A, “Basic ethers and process for the preparation thereof” (Egis Gyogyszergyar Rt., priority 1993, dated 1996).
Where two headings read alike, the source gives them in different places.

Tests used:
[1] = test system: Male Wistar rats; assay: Vogel test (drinking conflict test), anxiolytic effect; assay type: in vivo, rat (Wistar); conditions: ip, 0.5 h; rat, intraperitoneally, half an hour before testing; read-out: MED (minimum effective dose), Vogel test
Description: 1.1. Vogel test (drinking conflict test)
The anxiolytic effect was tested by using the method of Vogel et al. Male Wistar rats of 160 to 180 g body weight were kept free of food and drinking water for 24 and 48 hours, respectively. Test and carrier substances were administered intraperitoneally half an hour before testing. Animals within the experimental chamber were provided with drinking water through an inserted tube. After the animals' each twenty lapping for water the device emitted a 2 mA intensity electric shock through the drinking tube. During 5 minutes the shocks tolerated by the animals in order to quench their thirst were counted. The effect of treatment was expressed as the % increase of the tolerated shocks. The minimum effective dose (MED) was determined for each test compound [Volge, J. R., Beer, B., Clody, D. E.: Psychopharmacologia (Berl.) 21, 1 (1971)].

[2] = test system: mice; assay: Effect on the spontaneous motor activity (Borsy), sedative effect; assay type: in vivo, mouse; conditions: for ED50: Mus musculus, po, 0.5 h, read-out: ID50, spontaneous motor activity
Description: 2.1. Effect on the spontaneous motor activity
The test was carried out according to the method of Borsy et al. Groups consisting of 3 mice each were treated orally with different doses of the compounds to be tested. Then the test animals were placed into a 10-channel Dews system equipment. In this equipment the number of interruptions of infrared beam within 30 minutes was counted. […] Int. Pharmacodyn. 124, 1 (1960)].

[3] = test system: Male Wistar rats; assay: Conditioned avoidance response inhibition, antipsychotic effect; assay type: in vivo, rat (Wistar); conditions: rat; for Inhibition of the conditioned reflex (%): 30 mg/kg p.o., ++ = p < 0.05
Description: Conditioned avoidance response inhibition
The antipsychotic (neuroleptic) effect was measured by the inhibition of the learned conditioned avoidance reflex. The male Wistar rats, used for the study, were of 120-150 g body weight at the commencement of learning. A shuttle box was used as experimental device; it consists of two parts, 24×24.5×23 cm each, separated by a wall with a 6×9 cm gate. In response to a sutiable warning stimulus, in order to avoid the punishing (unconditioned) stimulus, animals within the box passed through the gate from one part to the other. The warning, i.e. conditioned stimulus (CS), a white light (1 Hz) blinking for 15 seconds, was applied at the place of the actual animal existence. The unconditioned stimulus (US), in form of 0.6 mA intensity electric shock, was randomly applied to the paw during the last 5 seconds of the conditioned stimulus. The animal's movement during the CS and US from one part of the box to the other, was defined as avoidance and escape responses, respectively. Both responses ceased the actual stimulus and stopped the trial. The time elapsed until the next trial (intertrial interval, ITI) was 15 seconds. While one experiment was carried out daily, an experiment consisted of 80 trials. Learning efficiency was expressed as percentage of the successful to the total avoidances. Effect of the neuroleptic drugs was examined in animals with stabilized conditioned reflexes and with at least 75% learning efficiency. Dosing was carried out once a week, one hour before the measurement in the shuttle box. To calculate the neuroleptic effect (50% inhibiting dose, ID50) , results obtained after the treatment were compared to those obtained on the previous day (controls).

[4] = Acute toxicity on mice (Litchfield and Wilcoxon); conditions: mouse, in vivo, po
Description: The test was carried out according to the method of Litchfield and Wilcoxon [Litchfield, J. T. and Wilcoxon, F. W.: J. Pharmacol. Exp. Ther., 96, 99 (1949)] by using white mice belonging to the CFLP strain and weighing 10 to 22 g, 10 animals per dose. The test compounds were administered orally in a volume of 20 cm^3 /kg.

[5] = Acute toxicity on mice (Litchfield and Wilcoxon); conditions: mouse, in vivo, ip
[6] = biological target: T1, H^+ /K^+ -ATP-ase (Sus scrofa, UniProt P19156); assay: H+/K+-ATP-ase inhibition on partially purified pig's microsome specimen; assay type: biochemical
T1 construct: on partially purified pig's microsome specimen; from tissue; host or cells: pig stomach, partially purified microsomes
T1 sequence (P19156 2-1034 limits assumed): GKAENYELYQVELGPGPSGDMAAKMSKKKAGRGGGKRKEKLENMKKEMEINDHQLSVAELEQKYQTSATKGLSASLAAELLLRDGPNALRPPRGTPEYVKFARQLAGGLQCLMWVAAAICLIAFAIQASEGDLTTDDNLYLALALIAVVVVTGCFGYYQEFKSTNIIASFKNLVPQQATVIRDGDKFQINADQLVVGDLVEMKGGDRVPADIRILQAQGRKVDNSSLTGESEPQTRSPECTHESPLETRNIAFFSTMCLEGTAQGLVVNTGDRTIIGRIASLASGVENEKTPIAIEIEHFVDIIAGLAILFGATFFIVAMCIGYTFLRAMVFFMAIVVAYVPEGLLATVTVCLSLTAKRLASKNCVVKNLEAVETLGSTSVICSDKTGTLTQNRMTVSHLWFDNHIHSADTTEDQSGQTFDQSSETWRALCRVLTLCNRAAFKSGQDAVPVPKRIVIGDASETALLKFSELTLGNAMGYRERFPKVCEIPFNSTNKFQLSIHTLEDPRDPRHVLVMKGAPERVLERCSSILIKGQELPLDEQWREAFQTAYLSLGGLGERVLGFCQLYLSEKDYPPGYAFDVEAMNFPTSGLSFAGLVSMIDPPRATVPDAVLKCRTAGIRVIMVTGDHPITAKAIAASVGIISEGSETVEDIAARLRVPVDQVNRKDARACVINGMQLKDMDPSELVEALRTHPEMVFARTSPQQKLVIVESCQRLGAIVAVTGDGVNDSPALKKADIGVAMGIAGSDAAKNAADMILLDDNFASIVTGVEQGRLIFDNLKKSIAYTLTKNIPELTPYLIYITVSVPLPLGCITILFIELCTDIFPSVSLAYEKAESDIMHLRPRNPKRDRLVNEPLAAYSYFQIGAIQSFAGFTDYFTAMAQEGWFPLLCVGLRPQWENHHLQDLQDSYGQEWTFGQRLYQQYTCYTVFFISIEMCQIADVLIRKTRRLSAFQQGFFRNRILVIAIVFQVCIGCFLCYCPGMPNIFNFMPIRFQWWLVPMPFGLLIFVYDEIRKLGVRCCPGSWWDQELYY
T1 sequence (P18434 whole entry partner): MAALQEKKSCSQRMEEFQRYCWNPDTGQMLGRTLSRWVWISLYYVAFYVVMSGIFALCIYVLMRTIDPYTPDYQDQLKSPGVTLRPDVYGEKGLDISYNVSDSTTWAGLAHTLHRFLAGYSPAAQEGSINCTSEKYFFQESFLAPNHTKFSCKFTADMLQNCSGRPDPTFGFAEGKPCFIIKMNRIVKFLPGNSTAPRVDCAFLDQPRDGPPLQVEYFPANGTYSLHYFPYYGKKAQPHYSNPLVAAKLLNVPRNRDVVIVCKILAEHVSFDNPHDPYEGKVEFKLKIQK
Description: 1. H^+ /K^+ -ATP-ase inhibition on pig's stomach
The test was carried out according to the method of Rabon and Sachs [E. C. Rabon et al.: Preparation of gastric H^+ K^+ -ATP-ase, Methods in Enzymology, 157, 649-651 (1988)]. The activity of the prepared enzyme was measured both in the presence as in the absence of K^+ ions. The difference in the libaration of phosphorus representing the activity of the enzyme was measured.

[7] = test system: gastric-acid secretion; assay: Gastric-acid-secretion test (Shay); assay type: in vivo, rat; conditions: po, read-out: Acid-secretion inhibition, ED50
Description: 2. […] The liberated gastric-acid content was determined by titration 4 hours after the ligature of the duodenum.

[8] = test system: erosion of the stomach wall; assay: Cytoprotective effect, ethanol erosion (Robert); assay type: in vivo; conditions: rat; for ED50: po; for Ratio of acid-secretion inhibition and erosion inhibition: ratio of ED50 values
Description: 3. The cytoprotective effect was determined according to the method of Robert [Robert, A.: Cytoprotection by prostaglandins. […] Rats weighing 200 to 250 g were used as test animals. 1 cm^3 of abs. ethanol was introduced to the stomach to produce an erosion of the stomach wall. The length and frequency of the lesions (erosion index and frequency) were measured and the percentage inhibition of lesion formation compared with vehicle-treated animals was calculated.

[9] = rat, p.o., 4 hours after ligature

CCC(/C=C/c1ccccc1)=N\OCC(C)CN(C)C (racemic) [Example 18, (R,S)-1-Phenyl-3-(E)-[3-(dimethylamino)-2-methylpropoxyimino]-1-(E)-pentene]
minimal effective dose [1]: 1 mg/kg
inhibition of spontaneous motor activity at 100 mg/kg ([2]; mice, orally, 100 mg/kg): 54%
Inhibition of the conditioned reflex (%) [3]: 12%

CCC(/C=C/c1ccc(Cl)cc1)=N\OCC(C)CN(C)C (racemic) [Example 19, (R,S)-1-(4-Chlorophenyl)-3-(E)-[3-(dimethylamino)-2-methylpropoxyimino]-1-(E)-pentene]
minimal effective dose [1]: 10 mg/kg
ED50 ([2]; mice, orally, 30 minutes): > 100 mg/kg
Inhibition of the conditioned reflex (%) [3]: 19%

CC(C)CCC(/C=C/c1ccc(Cl)cc1)=N\OCC(O)CNC1CCCCC1 (racemic) [Example 36, (R,S)-1-(4-Chlorophenyl)-6-methyl-3-(E)-[3-(cyclohexylamino)-2-hydroxypropoxyimino]-1-(E)-heptene]
LD50 at 336 h ([4]; mice, 14 days observation): > 1000 mg/kg
LD50 at 336 h ([5]; mice, 14 days observation): 30 to 100 mg/kg

CC(C)CCC(/C=C/c1ccc(Cl)cc1)=N\OCC(O)CN1CCCCC1 (racemic) [Example 37, (R,S)-1-(4-Chlorophenyl)-6-methyl-3-(E)-[2-hydroxy-3-(1-piperidinyl)-propoxyimino]-1-(E)-heptene]
LD50 at 336 h [4]: > 1000 mg/kg
IC50 [6]: 21 µM
ED50 [7, 9]: 30 to 100 mg/kg
ED50 ([8]; 1 cm^3 abs. ethanol): 3 to 10 mg/kg
Ratio of acid-secretion inhibition and erosion inhibition ([8]; p.o.): > 10
LD50 at 336 h [5]: 100 to 300 mg/kg

CNC1=Nc2ccc(Cl)cc2C(c2ccccc2)=[N+]([O-])C1 [Chlorodiazepoxide, reference compound]
ED50 ([2]; mice, orally, 30 minutes): 56 mg/kg

CN/C(=N/CCSCc1nc[nH]c1C)NC#N [Cimetidine, reference compound]
ED50 ([7]; Rattus norvegicus, 4 h): 59.1 mg/kg
ED50 ([8]; 1 cm^3 abs. ethanol): 100 to 200 mg/kg
Ratio of acid-secretion inhibition and erosion inhibition ([8]; p.o.): 0.3-0.6

CN1C(=O)CN=C(c2ccccc2)c2cc(Cl)ccc21 [Diazepam, reference compound]
ED50 [2]: 23 mg/kg

CCCC(/C=C/c1ccccc1)=N\OCCN(CC)CC [Example 1, 1-Phenyl-3-(E)-[2-(diethylamino)-ethoxyimino]-1-(E)-hexene]
minimal effective dose [1]: 30 mg/kg
ED50 ([2]; mice, orally, 30 minutes): > 100 mg/kg
Inhibition of the conditioned reflex (%) [3]: 10%

CCCCCCC(/C=C/c1ccc(Cl)cc1)=N\OCCN1CCCCC1 [Example 3, 1-(4-Chlorophenyl)-3-(E)-[2-(N-piperidinyl)-ethoxyimino]-1-(E)-nonene]
LD50 at 336 h [4]: 500 to 1000 mg/kg
IC50 [6]: 10 µM
ED50 [7, 9]: 50 to 150 mg/kg
ED50 ([8]; 1 cm^3 abs. ethanol): 2.5 mg/kg
Ratio of acid-secretion inhibition and erosion inhibition ([8]; p.o.): > 20
LD50 at 336 h [5]: 100 to 300 mg/kg

CC(C)CCC(/C=C/c1ccccc1)=N\OCCCN(C)C [Example 5, 1-Phenyl-6-methyl-3-(E)-[3-(dimethylamino)-propoxyimino]-1-(E)-heptene]
minimal effective dose [1]: > 30 mg/kg
ED50 ([2]; mice, orally, 30 minutes): > 100 mg/kg
Inhibition of the conditioned reflex (%) [3]: 16%

CCC(/C=C/c1ccc(Cl)cc1)=N\OCCN(C)C [Example 7, 1-(4-Chlorophenyl)-3-(E)-[2-(dimethylamino)-ethoxyimino]-1-(E)-pentene]
minimal effective dose [1]: 3 mg/kg
ED50 ([2]; mice, orally, 30 minutes): > 100 mg/kg
Inhibition of the conditioned reflex (%) [3]: 22%

CC(C)CCC(/C=C/c1ccc(Cl)cc1)=N\OCCCN(C)C [Example 13, 1-(4-Chlorophenyl)-6-methyl-3-(E)-[3-(dimethylamino)-propoxyimino]-1-(E)-heptene]
minimal effective dose [1]: > 30 mg/kg
ED50 ([2]; mice, orally, 30 minutes): > 100 mg/kg
Inhibition of the conditioned reflex (%) [3]: 12%

CCC(/C=C/c1ccccc1)=N\OCCN(C)C [Example 14, 1-Phenyl-3-(E)-[2-(dimethylamino)-ethoxyimino]-1-(E)-pentene]
minimal effective dose [1]: 10 mg/kg
ED50 ([2]; mice, orally, 30 minutes): > 100 mg/kg
Inhibition of the conditioned reflex (%) [3]: 18%

CC(C)CCC(/C=C/c1ccc(Cl)cc1)=N\OCCN(C)C [Example 15]
minimal effective dose [1]: 3 mg/kg
ED50 ([2]; mice, orally, 30 minutes): > 100 mg/kg
Inhibition of the conditioned reflex (%) [3]: 11%

CC(C)CC(/C=C/c1ccccc1)=N\OCCN(C)C [Example 17, 1-Phenyl-5-methyl-3-(E)-[2-(dimethylamino)-ethoxyimino]-1-(E)-hexene]
LD50 at 336 h [4]: > 1000 mg/kg
IC50 [6]: > 30 µM
ED50 [7, 9]: 166 mg/kg
ED50 ([8]; 1 cm^3 abs. ethanol): 2.7 mg/kg
Ratio of acid-secretion inhibition and erosion inhibition ([8]; p.o.): 61.4
minimal effective dose [1]: 30 mg/kg
ED50 ([2]; mice, orally, 30 minutes): > 100 mg/kg
Inhibition of the conditioned reflex (%) [3]: 40%
antipsychotic / conditioned-reflex-inhibiting activity (in words) ([3]; in vivo): slight conditioned-reflex-inhibiting activity
LD50 at 336 h [5]: 100 to 300 mg/kg

CC(C)CCC(/C=C/c1ccc(Cl)cc1)=N\OCCCN1CCCCCC1 [Example 35, 1-(Chlorophenyl)-6-methyl-3-(E)-[3-(hexahydro-1-H-azepinyl)-propoxyimino]-1-(E)-heptene]
LD50 at 336 h [4]: > 1000 mg/kg
LD50 at 336 h [5]: 30 to 100 mg/kg

CC(C)CCC(/C=C/c1ccc(F)cc1)=N\OCCCN1CCCCC1 [Example 38, 1-(4-Fluorophenyl)-6-methyl-3-(E)-[3-(N-piperidinyl)-propoximino]-1-(E)-heptene]
LD50 at 336 h [4]: 500 to 1000 mg/kg
IC50 [6]: 17 µM
ED50 [7, 9]: 37.7 mg/kg
ED50 ([8]; 1 cm^3 abs. ethanol): 1.3 mg/kg
Ratio of acid-secretion inhibition and erosion inhibition ([8]; p.o.): 29.0
LD50 at 336 h [5]: 100 to 300 mg/kg

CC(C)CCC(/C=C/c1ccc(Cl)cc1)=N/OCCC1CCCN1C (centres unmarked) [Example 40, 1-(4-Chlorophenyl)-6-methyl-3-(Z)-[2-(2-N-methylpyrrolidinyl)-ethoxyimino]-1-(E)-heptene]
LD50 at 336 h [4]: 1000 mg/kg
IC50 [6]: 10 µM
ED50 [7, 9]: < 100 mg/kg
ED50 ([8]; 1 cm^3 abs. ethanol): 0.9 mg/kg
Ratio of acid-secretion inhibition and erosion inhibition ([8]; p.o.): < 100
LD50 at 336 h [5]: 100 to 300 mg/kg

CC(C)CCC(/C=C/c1ccc(Cl)cc1)=N\OCCCN1CCCC1 [Example 41, 1-(4-Chlorophenyl)-6-methyl-3-(E)-[3-(N-pyrrolidinyl)-propoxyimino]-1-(E)-heptene]
LD50 at 336 h [4]: > 1000 mg/kg
IC50 [6]: 9 µM
ED50 [7, 9]: < 100 mg/kg
ED50 ([8]; 1 cm^3 abs. ethanol): 2 mg/kg
Ratio of acid-secretion inhibition and erosion inhibition ([8]; p.o.): < 50
LD50 at 336 h [5]: 30 to 100 mg/kg

CC(C)CCC(/C=C/c1ccc(Br)cc1)=N\OCCCN1CCCCC1 [Example 42, 1-(4-Bromophenyl)-6-methyl-3-(E)-[(3-N-piperidinyl)-propoxyimino]-1-(E)-heptene]
LD50 at 336 h [4]: > 1000 mg/kg
IC50 [6]: 7 µM
LD50 at 336 h [5]: 100 to 300 mg/kg

COc1ccc2[nH]c([S+]([O-])Cc3ncc(C)c(OC)c3C)nc2c1 (centres unmarked) [Omeprazole, reference compound]
ED50 [7, 9]: 3.9 mg/kg
ED50 ([8]; 1 cm^3 abs. ethanol): 4.5 mg/kg
Ratio of acid-secretion inhibition and erosion inhibition ([8]; p.o.): 0.9

CN1CCN(CC(=O)N2c3ccccc3C(=O)Nc3cccnc32)CC1 [Pirenzepine, reference compound]
ED50 [7, 9]: 7.9 mg/kg
ED50 ([8]; 1 cm^3 abs. ethanol): 18.6 mg/kg
Ratio of acid-secretion inhibition and erosion inhibition ([8]; p.o.): 0.4

Sucralfate [reference compound]
Ethanol erosion ED50 ([8]; p.o., 1 cm^3 abs. ethanol): 69.0
